{"source": "paper PMC11997999", "about": "“Uncovering α-Selectivity for Liver X Receptor Agonists for Lipotoxic Cancer Therapies” (Journal of Medicinal Chemistry, 2025)", "key": {"[1]": {"molecular_target": "T1, LXRα (Homo sapiens, UniProt Q13133)", "T1 construct": "To measure the activity of the remaining isoform under treatment; endogenous in cells; host or cells: Hep3B (NR1H2 knockout, LXRE-GFP reporter)", "T1 sequence (Q13133 1-447)": "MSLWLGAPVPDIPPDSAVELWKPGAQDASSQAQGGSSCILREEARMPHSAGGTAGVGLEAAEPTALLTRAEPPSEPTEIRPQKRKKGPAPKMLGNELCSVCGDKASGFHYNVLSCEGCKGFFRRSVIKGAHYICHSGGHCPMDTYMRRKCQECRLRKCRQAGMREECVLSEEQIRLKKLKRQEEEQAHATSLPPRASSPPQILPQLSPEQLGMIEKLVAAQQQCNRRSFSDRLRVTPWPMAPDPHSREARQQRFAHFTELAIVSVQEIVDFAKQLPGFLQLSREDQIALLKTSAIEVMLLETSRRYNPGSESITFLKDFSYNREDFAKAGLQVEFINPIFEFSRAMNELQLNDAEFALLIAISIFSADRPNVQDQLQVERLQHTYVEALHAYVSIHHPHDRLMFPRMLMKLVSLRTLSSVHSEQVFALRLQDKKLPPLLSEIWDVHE", "assay": "LXRα-specific LXRE-GFP reporter assay in Hep3B cells (NR1H2 knockout)", "type": "cell-based", "settings": "48h of treatment, GFP by FACS"}, "[2]": {"molecular_target": "T2, LXRβ (Homo sapiens, UniProt P55055)", "T2 construct": "To measure the activity of the remaining isoform under treatment; endogenous in cells; host or cells: Hep3B (NR1H3 knockout, LXRE-GFP reporter)", "T2 sequence (P55055 1-460)": "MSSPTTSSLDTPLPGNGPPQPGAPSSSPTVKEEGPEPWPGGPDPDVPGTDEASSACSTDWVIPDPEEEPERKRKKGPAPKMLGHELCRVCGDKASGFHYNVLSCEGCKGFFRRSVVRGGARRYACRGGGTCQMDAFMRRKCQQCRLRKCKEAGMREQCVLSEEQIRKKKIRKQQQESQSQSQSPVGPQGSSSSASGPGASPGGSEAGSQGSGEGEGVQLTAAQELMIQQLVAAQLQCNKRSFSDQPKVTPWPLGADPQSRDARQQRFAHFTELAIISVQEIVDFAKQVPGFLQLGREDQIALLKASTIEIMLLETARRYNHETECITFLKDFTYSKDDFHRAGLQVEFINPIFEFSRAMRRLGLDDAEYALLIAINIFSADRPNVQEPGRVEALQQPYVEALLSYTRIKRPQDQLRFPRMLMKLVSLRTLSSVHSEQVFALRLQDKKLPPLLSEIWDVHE", "assay": "LXRβ-specific LXRE-GFP reporter assay in Hep3B cells (NR1H3 knockout)", "type": "cell-based", "settings": "48h of treatment, GFP by FACS"}, "[3]": {"system": "Hep3B cells", "assay": "Oxidative stress in Hep3B cells (CellROX Green Reagent, FACS)", "type": "cell-based, human", "settings": "3 days, 3 μM LXR agonist + 1 μM sorafenib", "method": "We previously described that our established lipotoxic therapy triggers oxidative stress and an ER stress response, which finally leads to apoptosis in tumor cells.[6]\nThe determination of oxidative stress levels was performed using CellROX Green Reagent from Thermo Fischer Scientific in Hep3B cells. Measurement of green fluorescence was performed using the FACS LSRFortessa cell analyzer (BD Bioscience, Flow Cytometry Core Facility Tuebingen) after 3 days of treatment. Data were collected using DIVA software (v9.0.1)."}, "[4]": {"system": "SOD1, GADD34 and CHOP (GADD153)", "assay": "Western blot of oxidative stress and ER stress response factors in Hep3B cells", "type": "cell-based, human", "settings": "3 days, with 2 μM sorafenib", "method": "Proteins were extracted from cells using RIPA buffer, separated by SDS-PAGE, and transferred to PVDF membranes (Amersham Hybond ECL). For protein detection, membranes were incubated with antibodies against LXRα (Novus Biologicals, NBP2–17186, dilution: 1:1000), LXRβ (Cell Signaling Technology, 13519S, clone: D6M9D, dilution: 1:1000), CHOP (Cell Signaling, 2895 (L63F7), dilution: 1:1000), GADD34 (Proteintech, 10449–1-AP, dilution: 1:1000), SOD1 (ThermoFisher Scientific, MA1–105, clone: 8B10, dilution: 1:1000), α-tubulin (Cell Signaling, 2125 clone: 11H10, dilution: 1:5000), and vinculin (Sigma-Aldrich V9131, clone: hVIN-1, dilution: 1:5000) and visualized using the ChemiDoc MP imaging system (Bio-Rad, ImageLab v5.2.1)."}, "[5]": {"system": "Akt1^Myr; Myc^OE HCC organoids", "assay": "Cell viability analysis in HCC organoids (CellTiter-Glo 3D)", "type": "cell-based, murine", "settings": "5d, with 4 μM sorafenib", "description": "Finally, we analyzed the efficacy of compound 40 in preclinical treatment studies in three-dimensional liver cancer organoid cultures. HCC organoids driven by myristoylated Akt1 and overexpressed Myc (Akt1^Myr; Myc^OE) were isolated from murine liver tumors and subjected to monotherapies of sorafenib, compound 40, or a combination thereof (Figure 7C). The therapeutic outcome was side-by-side compared with combinatorial therapies comprising the established agonists T0901317 (1) and GW3965 (2). […] Isolation of murine HCC organoid cultures was performed from liver tumors derived from C57BL/6 mice using established protocols.[26] The animal experiments were approved by committees of the regional authority of the state of Baden-Wuerttemberg (Regierungspraesidium Tuebingen, authorization number M15/18G) as appropriate. After digestion, the organoids were embedded in 100% Growth Factor Reduced (GFR) MatrigelTM (Corning) and cultured at 37 °C and 5% CO2 in HCC organoid medium supplemented with nicotinamide (10 mM), N-acetylcystein (1.25 mM), human HGF (50 ng/mL), human FGF-10 (100 ng/mL), human R-Spondin (0.5 μg/mL), forskolin (10 μM), A83- 01 (0.5 μM), murine Noggin (50 ng/mL), gastrin I (10 nM), human BMP-7 (25 ng/mL), human Wnt3a (100 ng/mL), B27 supplement (1×) and N2 supplement (1×). The cultures were split by mechanical dissociation every 3 to 4 days. […] Cell viability was determined after 5 days of treatment using the CellTiter-Glo 3D Cell Viability Assay Kit (Promega). Cell viability of Hep3B, AML12, and BNL CL.2 cells was determined after 5 days of treatment in white 96 well plates (Sarstedt) using the CellTiter-Glo 2.0 Cell Viability Assay Kit (Promega). […] The luminescence signal was measured using an […] M PLEX plate reader (Tecan) and the Tecan i-control software (v3.9.1). […]"}}}
{"compound": "O=C1C(Nc2ccc(N3CCCCC3)cc2)=C(c2ccccc2)C(=O)N1Cc1ccccc1", "note": "[Compound 40, 1-Benzyl-3-phenyl-4-((4-(piperidin-1-yl)phenyl)amino)-1H-pyrrole-2,5-dione]", "values": [{"measurement": "EC50", "setting": "[1]", "result": 0.027, "unit": "µM"}, {"measurement": "EC50", "setting": "[2]", "result": 0.631, "unit": "µM"}, {"measurement": "oxidative stress induction in combination with sorafenib", "setting": "[3]", "result": "more efficient in inducing oxidative stress than GW3965 (2), GSK3987 (3), and AZ876 (4)"}, {"measurement": "induction of SOD1, GADD34 and CHOP", "setting": "[4]", "result": "strong induction of all factors"}, {"measurement": "therapeutic efficacy (cell viability) in combination with sorafenib", "setting": "[5]", "result": "further improved therapeutic efficacy"}]}
